Assay results published in PubChem BioAssay (NCI).
“And” between values parts separate entries of the source, which are not always exact repeats. Identical values can stand only once.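 Tested at 5 concentrations; 48 h exposure; 96-well plates; endpoints linearly interpolated, else capped at highest concentration. GI50 marks 50% less growth. TGI: concentration producing complete growth inhibition.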

Key:
Assay in all cases: DTP human tumour cell line panel, 48 h
[1] = tested on: OVCAR-5 ovarian
[2] = tested on: CAKI-1 renal
[3] = tested on: MALME-3M melanoma
[4] = tested on: CCRF-CEM leukemia
[5] = tested on: SK-MEL-2 melanoma
[6] = tested on: OVCAR-3 ovarian
[7] = tested on: SR leukemia
[8] = tested on: SK-MEL-5 melanoma
[9] = tested on: EKVX NSCLC
[10] = tested on: HCC-2998 colon

Compound	TGI [1]	TGI [2]	TGI [3]	TGI [4]	TGI [5]	TGI [6]	TGI [7]	TGI [8]	TGI [9]	TGI [10]	GI50 [1]	GI50 [2]	GI50 [3]	GI50 [4]	GI50 [5]	GI50 [9]	GI50 [10]	GI50 [6]	GI50 [8]	GI50 [7]
O=C(Nc1c(O)[nH]c(=S)[nH]c1=O)c1ccccn1	> 100 µM	> 100 µM	> 100 µM	> 100 µM	> 100 µM	> 100 µM	> 100 µM	> 100 µM												
O=C(O)c1ccccc1Cc1ccco1	> 100 µM	> 100 µM	> 100 µM		> 100 µM	> 100 µM	> 100 µM	> 100 µM	> 100 µM	> 100 µM										
Cn1cc(-c2nonc2-c2c[nH]c3ccccc23)c2ccccc21	16.4 µM	15 µM	17.7 µM	27.9 µM	14.6 µM	2.01 µM		12.9 µM	16 µM	7.08 µM	1.24 µM	0.413 µM	0.635 µM	0.396 µM	0.496 µM	0.567 µM	1.26 µM	0.323 µM	0.518 µM	
C=CC(=O)Nc1ccc(Nc2nccc(-c3ccc(N4CCCC4)c(C#N)c3)n2)cc1	> 25 µM	> 25 µM	20 µM	> 25 µM	> 25 µM	> 25 µM		> 25 µM	> 25 µM	> 25 µM	> 25 µM	4.6 µM	5.06 µM	13.8 µM	22.7 µM	> 25 µM	> 25 µM	> 25 µM	17.9 µM	
O=C(CC1=Nc2nnc(-c3nnc4n3C(=O)C(CC(=O)c3cccnc3)=N4)n2C1=O)c1cccnc1	> 100 µM	> 100 µM	> 100 µM	> 100 µM	> 100 µM	> 100 µM		> 100 µM		> 100 µM										
N#C/C(=C\c1ccccc1O)C(N)=O	> 100 µM	> 100 µM	> 100 µM	83.1 µM	> 100 µM	> 100 µM		> 100 µM	> 100 µM	> 100 µM										
O=[N+]([O-])c1ccc(Nc2ccccc2-c2ccccc2)c2nonc12	62.9 µM	50.2 µM	29.1 µM	> 72.2 µM	20.3 µM	22.8 µM		18.8 µM	64.1 µM	27.2 µM	22.4 µM	12.3 µM	5.2 µM	15.6 µM	6.16 µM	15.5 µM	11.7 µM	9.15 µM	6 µM	
O=C1c2ccccc2C2(O)Nc3cc(O)ccc3C12O (stereo unspecified)	> 100 µM	> 100 µM	> 100 µM	> 100 µM	> 100 µM	> 100 µM		> 100 µM	> 100 µM											
COc1cc(C(=O)OCCCCCCCCCCC[P+](c2ccccc2)(c2ccccc2)c2ccccc2)ccc1O	3.25 µM	3.18 µM		2.52 µM	1.88 µM		2.31 µM			1.92 µM	1.59 µM	1.64 µM		0.434 µM	0.522 µM		0.57 µM			0.364 µM
N=C(c1ccccc1)N(c1ccccc1)c1ccccc1	> 100 µM	> 100 µM	94.6 µM		> 100 µM		> 100 µM		> 100 µM	> 100 µM										
N#Cc1cccc(N2C(=O)c3c(c(-c4ccccc4)c(-c4ccc(Sc5ccc(-c6c(-c7ccccc7)c7c(c(-c8ccccc8)c6-c6ccccc6)C(=O)N(c6cccc(C#N)c6)C7=O)cc5)cc4)c(-c4ccccc4)c3-c3ccccc3)C2=O)c1	> 100 µM		> 100 µM	> 100 µM	> 100 µM	> 100 µM		> 100 µM	> 100 µM	> 100 µM										
COc1ccc(C#Cc2ccccc2C#CCCCCO)cc1	37.6 µM	40.3 µM	45.4 µM	53.8 µM	38.9 µM	40.2 µM		57.6 µM	54 µM	33.3 µM	18.7 µM	22.3 µM	23 µM	23.5 µM	19.8 µM	23.6 µM	17.9 µM	20.4 µM	25.2 µM	
COc1cc(-c2nn3c(/C=C4/C(=O)Nc5ccccc54)c(-c4ccc(C)cc4)nc3s2)cc(OC)c1OC	> 100 µM	> 100 µM	4.78 µM		30.9 µM	> 100 µM	> 100 µM			> 100 µM	> 100 µM	15.4 µM	0.765 µM		16.3 µM		> 100 µM	2.9 µM		2.35 µM
Cc1cccc(C(=O)c2cccc3ccccc23)c1C(=O)O	> 100 µM		> 100 µM	> 100 µM	> 100 µM	> 100 µM		> 100 µM	> 100 µM											
Cc1ccc(C)c(NC(=O)C(=O)CC(=O)C2CCOC2=O)c1 (stereo unspecified)	> 100 µM	> 100 µM	> 100 µM	> 100 µM	> 100 µM	> 100 µM		> 100 µM	> 100 µM											
COc1ccc(S(=O)(=O)NC(C)C(=O)O)cc1 (stereo unspecified)	> 100 µM	> 100 µM	> 100 µM	> 100 µM	> 100 µM	> 100 µM		> 100 µM	> 100 µM											
C=C(Cn1c(=O)c2ccccc2c2ccccc21)c1ccc(C(=O)Nc2ccccc2N)cc1	> 100 µM	> 100 µM	> 92.8 µM	4.13 µM	> 100 µM	> 100 µM		> 100 µM	> 100 µM	> 100 µM	> 100 µM	23.3 µM	5.19 µM	0.466 µM	> 86.3 µM	> 59.8 µM	31.1 µM	33.7 µM	20.6 µM	
COC(=O)[C@@H](NC(=O)NC(=O)NC(=O)CI)C(C)C	29.7 µM	2.73 µM	3.64 µM		36.5 µM	4.78 µM	5.64 µM	31.6 µM	31.4 µM	27.4 µM	13.2 µM	1.41 µM	1.63 µM		18.9 µM	17.2 µM	13.4 µM	2.23 µM	17.4 µM	1.76 µM
Cc1c2cc[nH]c(=O)c2c(C)c2c1[nH]c1cc(OCCN3CCN(C)CC3)ccc12	11.6 µM	9.55 µM		8.99 µM	3.43 µM	7.7 µM	12 µM	2.44 µM	10.3 µM	7.24 µM	0.944 µM	2.17 µM		1.58 µM	1.52 µM	1.11 µM	1.26 µM	1.24 µM	1.18 µM	0.314 µM

Compound	TGI [1]	TGI [2]	TGI [3]	TGI [4]	TGI [5]	TGI [6]	TGI [7]	TGI [8]	TGI [9]	TGI [10]	GI50 [1]	GI50 [2]	GI50 [3]	GI50 [4]	GI50 [5]	GI50 [9]	GI50 [10]	GI50 [6]	GI50 [8]	GI50 [7]
O=C(Nc1ccc(Cl)cc1Cl)c1ccc(NC2=C(Cl)C(=O)N(Cc3ccccc3)C2=O)cc1		63.5 µM		6.84 µM	> 100 µM	33.5 µM	3.12 µM	65.8 µM	46.1 µM			26.4 µM		1.99 µM	54.1 µM	21.7 µM		16.3 µM	20.6 µM	1.35 µM
COc1cccc([C@H]2CC(=O)c3cc4c(cc3N2)OCO4)c1		> 100 µM		> 100 µM		> 100 µM		0.226 µM		0.115 µM	13.7 µM	0.151 µM		0.0586 µM			0.0283 µM	0.0415 µM	0.0271 µM	
[O-]/[N+](=C\c1ccccc1)[C@H](COCc1ccccc1)c1ccccc1	> 100 µM		> 100 µM	> 100 µM	> 100 µM	> 100 µM		> 100 µM	> 100 µM	> 100 µM										
O=C(c1ccccc1)c1c(NCC(O)CN2CCCC2)n(Cc2ccccc2)c(=O)n(Cc2ccccc2)c1=O (stereo unspecified)	82 µM	59 µM		63.6 µM	39 µM	36.2 µM		25 µM	49.1 µM	36.5 µM	29.7 µM	24.3 µM		24.3 µM	20.5 µM	19.6 µM	20.5 µM	18.4 µM	12.5 µM	
CC(C)(C)OC(=O)NCCNC1=CC(=O)c2nc3ccccc3c3ccnc1c23	86.1 µM	72.3 µM	81.8 µM		85.1 µM	67 µM		23.1 µM	> 100 µM		28 µM	28.4 µM	32 µM		28.4 µM	41.4 µM		13.8 µM	11.1 µM	
NNC(=S)N/N=C(\CCCC(=O)NCCc1ccccc1)CC(=O)c1ccccc1	> 100 µM		> 100 µM		> 100 µM	> 100 µM	> 100 µM	> 100 µM	> 100 µM	> 100 µM										
O=C(O)CN(c1ccccc1)S(=O)(=O)c1ccc(NC(=O)c2ccccc2)cc1	> 100 µM	> 100 µM	> 100 µM	> 100 µM	> 100 µM				> 100 µM											
COc1ccc2c(c1)C(=O)c1c-2n(CCCN)c(=O)c2ccccc12	1.18 µM	0.251 µM	0.352 µM	< 0.0356 µM	2.67 µM	0.798 µM		0.477 µM	1.83 µM	1.18 µM	0.142 µM	< 0.0468 µM	0.031 µM	< 0.0129 µM	0.82 µM	0.196 µM	0.164 µM	0.0957 µM	0.0586 µM	
C=CCC1OC(C)(C)Oc2ccc(OCOCCOC)cc21 (stereo unspecified)	> 100 µM	> 100 µM	> 100 µM		> 100 µM	> 100 µM		> 100 µM	> 100 µM	> 100 µM										
COc1cc(CCc2cccnc2)cc(OC)c1OC	> 100 µM	> 100 µM	> 100 µM	> 100 µM		> 100 µM		> 100 µM	> 100 µM											
COc1ccc(/C=C2\CN(C)Cc3c2nc(N)nc3-c2ccc(OC)cc2)cc1	> 100 µM	> 100 µM	> 100 µM	> 100 µM	> 100 µM	> 100 µM		> 100 µM	> 100 µM	> 100 µM										
CN1CCc2cc3c(cc2C1O)OCO3 (stereo unspecified)	33.3 µM and > 100 µM	30.6 µM and > 100 µM		> 100 µM	13 µM and > 100 µM		> 100 µM		36.8 µM and > 100 µM	36.9 µM and > 100 µM	19 µM and > 100 µM	14.8 µM and > 100 µM		10.1 µM and > 100 µM		17.8 µM and > 100 µM	18.8 µM and > 100 µM			
NS(=O)(=O)c1ccc(NC(=O)c2ccc(NC3=C(Cl)C(=O)N(Cc4ccccc4)C3=O)cc2)cc1	33.1 µM	29.3 µM	> 100 µM			7.88 µM		24.1 µM	> 100 µM		15.5 µM	14.8 µM	49.4 µM			61.9 µM		1.89 µM	10.9 µM	
CN1C(=O)c2c(ccc3c2OCO3)C2C(O)Cc3cc4c(cc3C21)OCO4 (stereo unspecified)	> 100 µM	81.7 µM		9.74 µM	8.44 µM	> 100 µM		> 100 µM	60.9 µM	64.4 µM										
CCOc1ccc(NC(=O)CC2SC(=Nc3ccc(Cl)cc3)NC2=O)cc1 (stereo unspecified)	> 100 µM	48.8 µM	> 100 µM	43.5 µM	> 100 µM	> 100 µM		> 100 µM	> 100 µM	> 100 µM										
COc1cc2c(cc1O)C=NCC2	> 100 µM	> 100 µM	> 100 µM	> 100 µM	> 100 µM	> 100 µM		> 100 µM	> 100 µM											
CCC[CH2][Sn]([CH2]CCC)([O]C(=O)c1c(F)cccc1F)[O]C(=O)c1c(F)cccc1F	2.61 µM	1.7 µM	1.8 µM		0.916 µM	2.36 µM	2.14 µM	2.52 µM	2.22 µM	2.41 µM	1.34 µM	0.38 µM	0.462 µM		0.221 µM	1.04 µM	1.18 µM	1.14 µM	1.24 µM	0.318 µM
c1ccc(SC2(Sc3ccccc3)CCCC2)cc1		> 100 µM		> 100 µM	> 100 µM	> 100 µM	> 100 µM	> 100 µM	> 100 µM											
O=P([O-])(O)OP(=O)([O-])O.[NH-][C@H]1CCCC[C@@H]1[NH-].[OH-].[OH-].[Pt+4]	63.2 µM	> 100 µM	38.2 µM	> 100 µM		39 µM		> 100 µM	68.3 µM	85.2 µM	26.3 µM	34.4 µM	14.3 µM	> 100 µM		25.3 µM	28.8 µM	21 µM	42.3 µM	
